# Test system: KBM7 WT cells (global proteome)
# Assay: Quantitative expression proteomics (TMT isobaric tagging), drug vs DMSO
# Type: cell-based, human
# Source text: The mechanism by which the assayed molecules re-program a functional CRL4B complex based on the data shown could be that drug binding to CUL4B recruits a neo-substrate directly to the cullin backbone. Alternatively, drug binding could stabilize CUL4B function to boost time intervals where a functionally competent CUL4B complexes can be formed. Here, the word “functional” implies that the CUL4B backbone of this complex needs to be neddylated, and a CUL4B associated E2 ubiquitin-conjugating enzyme (UBE2G1) needs to be bound. FIG. 9 outlines one possible mechanism. Both predicted mechanisms of action would result in a functionally altered CRL4B complex, and thus an altered stability of drug-induced (neo-) substrates. In order to identify target proteins with a decreased abundance or, in other words, target proteins that become degraded by CRL4B after drug treatment, global proteome composition was measured using quantitative expression proteomics (TMT-labeling). In brief, KBM7 cells were drug treated for 12 hours, lysed, and subjected to isobaric tagging. Ensuing proteomics analysis quantified a total of 7,903 proteins at a minimum spectral count of 2. […] Data on essentiality are taken from Hart et al., G3, August 2017 (PMID: 28655737).
# 50×10^6 KBM7^WT cells per condition were collected, washed four times with ice-cold PBS, the supernatant aspirated and pellets snap-frozen in liquid N2. Each washed cell pellet was lysed separately in 40 μL of freshly prepared lysis buffer as previously described (see Mayor-Ruiz et al., Mol Cell 2019)
# Offline Fractionation via RP-HPLC at high pH and 2D-RP/RP Liquid Chromatography Mass Spectrometry were performed as previously described (see Mayor-Ruiz et al., Mol Cell 2019).
# Acquired raw data files were processed using the Proteome Discoverer 2.2.0 platform, utilizing the Sequest HT database search engine and Percolator validation software node (V3.04) to remove false positives with a false discovery rate (FDR) of 1% on peptide and protein level under strict conditions. Searches were performed with full tryptic digestion against the human SwissProt database v2017.06 with up to two allowed miscleavage sites. Oxidation (+15.9949 Da) of methionine was set as variable modification, whilst carbamidomethylation (+57.0214 Da) of cysteine residues and TMT 6-plex labelling of peptide N-termini and lysine residues were set as fixed modifications. Data was searched with mass tolerances of ±10 ppm and ±0.02 Da on the precursor and fragment ions, respectively. Results were filtered to include peptide spectrum matches (PSMs) with Sequest HT cross-correlation factor (Xcorr) scores of […] and high peptide confidence assigned by Percolator. MS^2 signal-to-noise values (S/N) values of TMT reporter ions were used to estimate peptide/protein abundance changes. PSMs with precursor isolation interference values of ≥ 50% and average TMT-reporter ion S/N≤10 were excluded from quantitation. Only unique peptides were used for TMT quantitation as well as for TOP3 label-free quantitation. Isotopic impurity correction and TMT channel-normalization based on total peptide amount were applied. For statistical analysis and p-value calculation, the integrated ANOVA hypothesis test was used. TMT ratios with p-values below 0.01 were considered as significant. Only proteins with >1 peptide detected and >1 unique peptide detected were considered for further analysis. For the calling of destabilized proteins, a log 2 fold change threshold (drug/DMSO) of −0.3 was applied.
# Comparison of overall proteome-wide changes in KBM7 cells treated with IC020772.1 (2.5 μM), IC021313.2 (7 μM) or T6938051 (3.5 μM) for 5 h and 12h, using quantitative proteomics based on isobaric tagging.
# The protein names in Table 4, Table 5 and Table 6 refer to the protein names as provided by HUGO Gene Nomenclature Committee (HGNC) database. […]
smiles,measurement,setting,value
O=C(CSc1nnc2c(n1)[nH]c1ccccc12)Nc1ccc(Cl)cn1 [IC020772.1],log2FC (IC020772.1/DMSO),KBTBD7 (Q8WVZ9),−0.5353
same,log2FC (IC020772.1/DMSO),LIMD2 (Q9BT23),−0.6282
same,log2FC (IC020772.1/DMSO),MTR (Q99707-1),−0.5395
same,log2FC (IC020772.1/DMSO),NARF (Q9UHQ1-2),−0.488
same,log2FC (IC020772.1/DMSO),NCR3LG1 (Q68D85),−0.488
same,log2FC (IC020772.1/DMSO),NDC80 (O14777),−0.5585
same,log2FC (IC020772.1/DMSO),NKAPD1 (Q6ZUT1-2),−0.488
same,log2FC (IC020772.1/DMSO),NKIRAS1 (Q9NYS0),−0.5374
same,log2FC (IC020772.1/DMSO),NLK (Q9UBE8),−0.4982
same,log2FC (IC020772.1/DMSO),NPAT (Q14207),−0.6439
same,log2FC (IC020772.1/DMSO),NUF2 (Q9BZD4),−0.6282
same,log2FC (IC020772.1/DMSO),NXF3 (Q9H4D5-1),−0.5628
same,log2FC (IC020772.1/DMSO),PCLAF (Q15004-1),−1.248
same,log2FC (IC020772.1/DMSO),PDCD2 (Q16342-1),−0.5585
same,log2FC (IC020772.1/DMSO),PEX19 (P40855-1),−0.488
same,log2FC (IC020772.1/DMSO),PHF8 (Q9UPP1-4),−0.4961
same,log2FC (IC020772.1/DMSO),PIAS4 (Q8N2W9),−0.4901
same,log2FC (IC020772.1/DMSO),PIBF1 (Q8WXW3-1),−0.5002
same,log2FC (IC020772.1/DMSO),PIP5K1A (Q99755-3),−0.5479
same,log2FC (IC020772.1/DMSO),PRR14L (Q5THK1-1),−0.5458
same,log2FC (IC020772.1/DMSO),PUM2 (Q8TB72-1),−0.5585
same,log2FC (IC020772.1/DMSO),RELT (Q969Z4),−0.4901
same,log2FC (IC020772.1/DMSO),RIOK2 (Q9BVS4-1),−0.6394
same,log2FC (IC020772.1/DMSO),RLIM (Q9NVW2-1),−0.5458
same,log2FC (IC020772.1/DMSO),RNF149 (Q8NC42),−0.55
same,log2FC (IC020772.1/DMSO),RNF219 (Q5W0B1),−0.6506
same,log2FC (IC020772.1/DMSO),RTEL1 (Q9NZ71-2),−0.5395
same,log2FC (IC020772.1/DMSO),SCAND1 (P57086),−1.377
same,log2FC (IC020772.1/DMSO),SCARF1 (Q14162-1),−1.297
same,log2FC (IC020772.1/DMSO),SDHAF3 (Q9NRP4),−0.6349
same,log2FC (IC020772.1/DMSO),SIK2 (Q9H0K1),−0.4961
same,log2FC (IC020772.1/DMSO),SLC19A1 (P41440-1),−0.6326
same,log2FC (IC020772.1/DMSO),SLCO4A1 (Q96BD0-1),−0.5043
same,log2FC (IC020772.1/DMSO),SNAP29 (O95721),−0.6282
same,log2FC (IC020772.1/DMSO),SPHK2 (Q9NRA0-5),−0.6439
same,log2FC (IC020772.1/DMSO),STXBP4 (Q6ZWJ1-1),−0.5043
same,log2FC (IC020772.1/DMSO),TFAP4 (Q01664),−0.5585
same,log2FC (IC020772.1/DMSO),TMED1 (Q13445),−0.5395
same,log2FC (IC020772.1/DMSO),TMEM126B (Q8IUX1-1),−0.4961
same,log2FC (IC020772.1/DMSO),TPK1 (Q9H3S4-1),−0.5543
same,log2FC (IC020772.1/DMSO),TPT1 (P13693-1),−0.4982
same,log2FC (IC020772.1/DMSO),TRMT44 (Q8IYL2-1),−0.5416
same,log2FC (IC020772.1/DMSO),TRUB2 (O95900-1),−0.6371
same,log2FC (IC020772.1/DMSO),TTC21B (Q7Z4L5-1),−0.4901
same,log2FC (IC020772.1/DMSO),UBE2A (P49459-1),−0.4921
same,log2FC (IC020772.1/DMSO),UBE2J2 (Q8N2K1-3),−0.55
same,log2FC (IC020772.1/DMSO),UBL5 (Q9BZL1),−0.5522
same,log2FC (IC020772.1/DMSO),UBXN2B (Q14CS0),−0.5374
same,log2FC (IC020772.1/DMSO),USP38 (Q8NB14-1),−0.4941
same,log2FC (IC020772.1/DMSO),ZFAND3 (Q9H8U3),−0.5543
same,log2FC (IC020772.1/DMSO),ZNF182 (P17025-1),−0.6529

# Source: patent publication US12410152B2, “Oxazole and thioazole-type cullin ring ubiquitin ligase compounds and uses thereof” (Proxygen GmbH, priority 2019, dated 2025)
